# Results published in BindingDB's records for doi:10.3109/14756366.2010.548329 (Sun Yat-sen University, 2011).
# Legend:
# [1] = biological target: Cholinesterase (Equus caballus, UniProt P81908); experiment: Enzyme Inhibition Assay; settings: pH 8; 37 °C
# Protocol: (§1) Enzyme solutions were prepared to give 2.0 units/mL in 2 mL aliquots. The assay medium contained phosphate buffer, pH 8.0 (1 mL), 50 μL of 0.01 M DTNB, 10 μL of enzyme, and 50 μL of 0.01 M substrate (ATC). The substrate was added to the assay medium containing enzyme, buffer, and DTNB with inhibitor after 15 min of incubation time. […] In vitro BuChE assay use the similar method described above.
# [2] = biological target: Acetylcholinesterase (Electrophorus electricus, UniProt O42275); experiment: Enzyme Inhibition Assay; settings: pH 8; 37 °C
# Protocol: as §1
# Sequence of Cholinesterase (P81908 whole entry): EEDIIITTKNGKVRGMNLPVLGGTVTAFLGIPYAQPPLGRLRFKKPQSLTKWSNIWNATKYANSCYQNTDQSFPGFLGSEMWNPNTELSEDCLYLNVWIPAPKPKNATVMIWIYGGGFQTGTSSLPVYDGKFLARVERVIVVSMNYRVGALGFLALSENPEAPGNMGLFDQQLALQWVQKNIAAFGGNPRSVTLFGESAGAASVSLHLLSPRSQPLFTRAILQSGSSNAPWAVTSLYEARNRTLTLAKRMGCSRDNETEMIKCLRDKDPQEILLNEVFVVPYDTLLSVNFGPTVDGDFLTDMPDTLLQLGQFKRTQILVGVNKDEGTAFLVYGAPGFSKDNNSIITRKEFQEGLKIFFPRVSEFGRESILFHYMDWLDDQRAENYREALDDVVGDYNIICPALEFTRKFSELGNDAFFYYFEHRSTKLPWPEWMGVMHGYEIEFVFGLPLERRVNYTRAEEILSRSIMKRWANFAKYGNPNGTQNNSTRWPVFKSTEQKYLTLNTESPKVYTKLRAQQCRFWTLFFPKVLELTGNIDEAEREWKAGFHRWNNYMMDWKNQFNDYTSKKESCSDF
# Sequence of Acetylcholinesterase (O42275 whole entry): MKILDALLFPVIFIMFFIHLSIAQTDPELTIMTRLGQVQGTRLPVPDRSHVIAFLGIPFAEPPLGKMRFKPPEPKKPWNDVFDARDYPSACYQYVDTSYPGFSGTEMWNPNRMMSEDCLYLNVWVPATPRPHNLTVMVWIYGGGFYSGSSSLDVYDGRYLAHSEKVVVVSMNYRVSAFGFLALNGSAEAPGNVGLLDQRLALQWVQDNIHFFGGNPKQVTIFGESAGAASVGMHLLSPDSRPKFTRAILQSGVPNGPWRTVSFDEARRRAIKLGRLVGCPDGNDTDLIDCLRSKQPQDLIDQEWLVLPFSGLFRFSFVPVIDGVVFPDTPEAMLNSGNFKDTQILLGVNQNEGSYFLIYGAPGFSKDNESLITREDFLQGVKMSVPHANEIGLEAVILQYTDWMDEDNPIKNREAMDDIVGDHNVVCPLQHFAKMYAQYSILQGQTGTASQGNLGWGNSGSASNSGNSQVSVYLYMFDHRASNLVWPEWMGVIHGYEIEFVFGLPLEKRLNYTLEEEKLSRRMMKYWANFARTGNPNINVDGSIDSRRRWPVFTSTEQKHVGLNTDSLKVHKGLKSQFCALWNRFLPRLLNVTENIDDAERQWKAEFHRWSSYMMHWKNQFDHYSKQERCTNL
SMILES,IC50 [1] [µM],IC50 [2] [µM]
"COc1cc(CNCCCCCNCc2cc(OC)c3c(c2)OCO3)cc2c1OCO2 [N1,N5-bis((7-methoxybenzo[d][1,3]dioxol-5-yl)methyl)pentane-1,5-diamine (5c)]",3.35,13.2
"COc1cc(CNCCCCCCCCNCc2cc(OC)c3c(c2)OCO3)cc2c1OCO2 [N1, N8-bis((7-methoxybenzo[d][1,3]dioxol-5-yl)methyl)octane-1,8-diamine (5f)]",3.11,2.79
"COc1cc(CNCCCCCCCNCc2cc(OC)c3c(c2)OCO3)cc2c1OCO2 [N1,N7-bis((7-methoxybenzo[d][1,3]dioxol-5-yl)methyl)heptane-1,7-diamine (5e)]",3.02,4.24
"COc1cc(CNCCCNCc2cc(OC)c3c(c2)OCO3)cc2c1OCO2 [N1,N3-bis((7-methoxybenzo[d][1,3]dioxol-5-yl)methyl)propane-1,3-diamine (5a)]",52.3,> 125
"COc1cc(CNCCCCNCc2cc(OC)c3c(c2)OCO3)cc2c1OCO2 [N1,N4-bis((7-methoxybenzo[d][1,3]dioxol-5-yl)methyl)butane-1,4-diamine (5b)]",12.1,120
"COc1cc(CNCCCCCCNCc2cc(OC)c3c(c2)OCO3)cc2c1OCO2 [N1,N6-bis((7-methoxybenzo[d][1,3]dioxol-5-yl)methyl)hexane-1,6-diamine (5d)]",2.07,9.78
"COc1cc(CNCCCCCCCCCNCc2cc(OC)c3c(c2)OCO3)cc2c1OCO2 [N1,N9-bis((7-methoxybenzo[d][1,3]dioxol-5-yl)methyl)nonane-1,9-diamine (5g)]",5.14,2.76
